In patent publication US9802927B2, “Oxadiazine compounds and methods of use thereof” (Denali Therapeutics, Inc., priority 2015, dated 2017):

The molecules below were run on Aβ42 (assay: In vitro cell screening assay in H4 cells expressing human APP751: Aβ42 by sandwich ELISA). Conditions: Homo sapiens, compounds 0.003-10 μM, incubated overnight (16-18 h), sandwich ELISA of supernatant.
Format: cell-based
Summary of the method: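 Secreted Aβ42 measured by sandwich ELISA, C-terminal-specific capture and 4G8-HRP detection, TMB read at 450 nm, from supernatants of APP751-expressing H4 cells exposed overnight (16-18 h) to 0.003-10 μM compound in Pro293 medium, 0.33% DMSO. Data scaled between DMSO and DAPT controls; EC50 from variable-slope nonlinear regression.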

Row | EC50 [nM] | SMILES
1 | 28.8 | COc1nc(C2=NOCC(c3cn(C)c4cccc(Cl)c34)N2)ccc1-n1cnc(C)c1 (single isomer, unassigned; (+)) [Example 229A, (+)-5-(4-chloro-1-methyl-1H-indol-3-yl)-3-(6-methoxy-5-(4-methyl-1H-imidazol-1-yl)pyridin-2-yl)-5,6-dihydro-4H-1,2,4-oxadiazine]
2 | 47.1 | COc1nc(C2=NOCC(c3cn(C)c4cccc(C#N)c34)N2)ccc1-n1cnc(C)c1 (single isomer, unassigned; (+)) [Example 247A, (+)-3-(3-(6-methoxy-5-(4-methyl-1H-imidazol-1-yl)pyridin-2-yl)-5,6-dihydro-4H-1,2,4-oxadiazin-5-yl)-1-methyl-1H-indole-4-carbonitrile]

Same assay, conditions: compounds 0.003-10 μM, incubated overnight (16-18 h), sandwich ELISA of supernatant

Row | SMILES | EC50 [nM]
3 | COc1nc(C2=NOCC(c3ccc4c(c3)OC(F)(F)O4)N2)ccc1-n1cnc(C)c1 (single isomer, unassigned; (+)) [Example 225B] | 14
4 | COc1nc(C2=NOCC(c3cn(C)c4cc(F)cc(F)c34)N2)ccc1-n1cnc(C)c1 (single isomer, unassigned; (+)) [Example 226A, (+)-5-(4,6-difluoro-1-methyl-1H-indol-3-yl)-3-(6-methoxy-5-(4-methyl-1H-imidazol-1-yl)pyridin-2-yl)-5,6-dihydro-4H-1,2,4-oxadiazine] | 9.4
5 | COc1nc(C2=NOCC(c3cn(C4CC4)c4cc(F)ccc34)N2)ccc1-n1cnc(C)c1 (single isomer, unassigned; (+)) [Example 228B, (+)-5-(1-cyclopropyl-6-fluoro-1H-indol-3-yl)-3-(6-methoxy-5-(4-methyl-1H-imidazol-1-yl)pyridin-2-yl)-5,6-dihydro-4H-1,2,4-oxadiazine] | 8.4
6 | COc1nc(C2=NOCC(c3cn(C)c4cccc(C(F)(F)F)c34)N2)ccc1-n1cnc(C)c1 (single isomer, unassigned; (+)) [Example 230A, (+)-3-(6-methoxy-5-(4-methyl-1H-imidazol-1-yl)pyridin-2-yl)-5-(1-methyl-4-(trifluoromethyl)-1H-indol-3-yl)-5,6-dihydro-4H-1,2,4-oxadiazine] | 105
7 | COc1nc(C2=NOCC(c3cn(C)c4c(F)cccc34)N2)ccc1-n1cnc(C)c1 (single isomer, unassigned; (+)) [Example 231B, (+)-5-(7-fluoro-1-methyl-1H-indol-3-yl)-3-(6-methoxy-5-(4-methyl-1H-imidazol-1-yl)pyridin-2-yl)-5,6-dihydro-4H-1,2,4-oxadiazine] | 10.8
8 | COc1nc(C2=NOCC(c3nn(C)c4ccc(Cl)cc34)N2)ccc1-n1cnc(C)c1 (single isomer, unassigned; (+)) [Example 232B, (+)-5-(5-chloro-1-methyl-1H-indazol-3-yl)-3-(6-methoxy-5-(4-methyl-1H-imidazol-1-yl)pyridin-2-yl)-5,6-dihydro-4H-1,2,4-oxadiazine] | 12.9
9 | COc1nc(C2=NOCC(c3cn(C)c4ccc(C(F)(F)F)cc34)N2)ccc1-n1cnc(C)c1 (single isomer, unassigned; (+)) [Example 233B, (+)-3-(6-methoxy-5-(4-methyl-1H-imidazol-1-yl)pyridin-2-yl)-5-(1-methyl-5-(trifluoromethyl)-1H-indol-3-yl)-5,6-dihydro-4H-1,2,4-oxadiazine] | 1.7
10 | COc1nc(C2=NOCC(c3ccc(C(C)(C)C)cc3)N2)ccc1-n1cnc(C)c1 (single isomer, unassigned; (+)) [Example 235B, (+)-5-(4-(tert-butyl)phenyl)-3-(6-methoxy-5-(4-methyl-1H-imidazol-1-yl)pyridin-2-yl)-5,6-dihydro-4H-1,2,4-oxadiazine] | 9.5
11 | COc1nc(C2=NOCC(c3cn(C)c4ccc(Cl)c(F)c34)N2)ccc1-n1cnc(C)c1 (single isomer, unassigned; (+)) [Example 237A, (+)-5-(5-chloro-4-fluoro-1-methyl-1H-indol-3-yl)-3-(6-methoxy-5-(4-methyl-1H-imidazol-1-yl)pyridin-2-yl)-5,6-dihydro-4H-1,2,4-oxadiazine] | 5
12 | COc1nc(C2=NOCC(c3nn(C)c4ccc(C(F)(F)F)cc34)N2)ccc1-n1cnc(C)c1 (single isomer, unassigned; (+)) [Example 241B, (+)-3-(6-methoxy-5-(4-methyl-1H-imidazol-1-yl)pyridin-2-yl)-5-(1-methyl-5-(trifluoromethyl)-1H-indazol-3-yl)-5,6-dihydro-4H-1,2,4-oxadiazine] | 5.1
13 | COc1nc(C2=NOCC(c3cccc(OC(F)(F)F)c3)N2)ccc1-n1cnc(C)c1 (single isomer, unassigned; (+)) [Example 242B, (+)-3-(6-methoxy-5-(4-methyl-1H-imidazol-1-yl)pyridin-2-yl)-5-(3-(trifluoromethoxy)phenyl)-5,6-dihydro-4H-1,2,4-oxadiazine] | 18.5
14 | COc1nc(C2=NOCC(c3cn(C)c4ccc(C#N)cc34)N2)ccc1-n1cnc(C)c1 (single isomer, unassigned; (+)) [Example 245B, (+)-3-(3-(6-methoxy-5-(4-methyl-1H-imidazol-1-yl)pyridin-2-yl)-5,6-dihydro-4H-1,2,4-oxadiazin-5-yl)-1-methyl-1H-indole-5-carbonitrile] | 18.5
15 | COc1nc(C2=NOCC(C3Cc4ccccc4C3)N2)ccc1-n1cnc(C)c1 (single isomer, unassigned; (+)) [Example 246B, (+)-5-(2,3-dihydro-1H-inden-2-yl)-3-(6-methoxy-5-(4-methyl-1H-imidazol-1-yl)pyridin-2-yl)-5,6-dihydro-4H-1,2,4-oxadiazine] | 25.7
16 | COc1nc(C2=NOCC(c3cn(C)c4cc(C#N)ccc34)N2)ccc1-n1cnc(C)c1 (single isomer, unassigned; (+)) [Example 249B, (+)-3-(3-(6-methoxy-5-(4-methyl-1H-imidazol-1-yl)pyridin-2-yl)-5,6-dihydro-4H-1,2,4-oxadiazin-5-yl)-1-methyl-1H-indole-6-carbonitrile] | 30.2
17 | COc1ccc2c(c1)c(C1CON=C(c3ccc(-n4cnc(C)c4)c(OC)n3)N1)cn2C (single isomer, unassigned; (+)) [Example 250B, (+)-5-(5-methoxy-1-methyl-1H-indol-3-yl)-3-(6-methoxy-5-(4-methyl-1H-imidazol-1-yl)pyridin-2-yl)-5,6-dihydro-4H-1,2,4-oxadiazine] | 15.8
18 | COc1nc(C2=NOCC(c3cn(C)c4cccc(OC)c34)N2)ccc1-n1cnc(C)c1 (single isomer, unassigned; (+)) [Example 252B, (+)-5-(4-methoxy-1-methyl-1H-indol-3-yl)-3-(6-methoxy-5-(4-methyl-1H-imidazol-1-yl)pyridin-2-yl)-5,6-dihydro-4H-1,2,4-oxadiazine] | 36.3

Continued, values first:

Row | EC50 [nM] | SMILES
19 | 73.8 | COc1nc(C2=NOCC(c3ccc(C)cc3)N2)ccc1-n1cnc(C)c1 (single isomer, unassigned; (+)) [Example 227B, (+)-3-(6-methoxy-5-(4-methyl-1H-imidazol-1-yl)pyridin-2-yl)-5-(p-tolyl)-5,6-dihydro-4H-1,2,4-oxadiazine]
20 | 9.5 | COc1nc(C2=NOCC(c3cc4cc(C5CC5)ccc4o3)N2)ccc1-n1cnc(C)c1 (single isomer, unassigned; (+)) [Example 234B, (+)-5-(5-cyclopropylbenzofuran-2-yl)-3-(6-methoxy-5-(4-methyl-1H-imidazol-1-yl)pyridin-2-yl)-5,6-dihydro-4H-1,2,4-oxadiazine]
21 | 9.2 | COc1nc(C2=NOCC(c3cc4ccc(C5CC5)cc4o3)N2)ccc1-n1cnc(C)c1 (single isomer, unassigned; (+)) [Example 236B, (+)-5-(6-cyclopropylbenzofuran-2-yl)-3-(6-methoxy-5-(4-methyl-1H-imidazol-1-yl)pyridin-2-yl)-5,6-dihydro-4H-1,2,4-oxadiazine]
22 | 113 | COc1nc(C2=NOCC(c3ccc4nc(C)sc4c3)N2)ccc1-n1cnc(C)c1 (single isomer, unassigned; (+)) [Example 238B, (+)-3-(6-methoxy-5-(4-methyl-1H-imidazol-1-yl)pyridin-2-yl)-5-(2-methylbenzo[d]thiazol-6-yl)-5,6-dihydro-4H-1,2,4-oxadiazine]
23 | 13.1 | COc1nc(C2=NOCC(c3ccc(Cl)c(C4CC4)c3)N2)ccc1-n1cnc(C)c1 (single isomer, unassigned; (+)) [Example 239B, (+)-5-(4-chloro-3-cyclopropylphenyl)-3-(6-methoxy-5-(4-methyl-1H-imidazol-1-yl)pyridin-2-yl)-5,6-dihydro-4H-1,2,4-oxadiazine]
24 | 109 | COc1nc(C2=NOCC(c3ccc4scnc4c3)N2)ccc1-n1cnc(C)c1 (single isomer, unassigned; (+)) [Example 240B, (+)-5-(benzo[d]thiazol-5-yl)-3-(6-methoxy-5-(4-methyl-1H-imidazol-1-yl)pyridin-2-yl)-5,6-dihydro-4H-1,2,4-oxadiazine]
25 | 13.2 | COc1nc(C2=NOCC(c3ccc(C4CC4)c(Cl)c3)N2)ccc1-n1cnc(C)c1 (single isomer, unassigned; (+)) [Example 243B, (+)-5-(3-chloro-4-cyclopropylphenyl)-3-(6-methoxy-5-(4-methyl-1H-imidazol-1-yl)pyridin-2-yl)-5,6-dihydro-4H-1,2,4-oxadiazine]
26 | 26.3 | COc1nc(C2=NOCC(c3cccc(Cl)c3)N2)ccc1-n1cnc(C)c1 (single isomer, unassigned; (+)) [Example 244B, (+)-5-(3-chlorophenyl)-3-(6-methoxy-5-(4-methyl-1H-imidazol-1-yl)pyridin-2-yl)-5,6-dihydro-4H-1,2,4-oxadiazine]
27 | 10.1 | COc1nc(C2=NOCC(c3ccc4c(c3)CCC4)N2)ccc1-n1cnc(C)c1 (single isomer, unassigned; (+)) [Example 248B, (+)-5-(2,3-dihydro-1H-inden-5-yl)-3-(6-methoxy-5-(4-methyl-1H-imidazol-1-yl)pyridin-2-yl)-5,6-dihydro-4H-1,2,4-oxadiazine]
